The test has as its target T1, Orexin receptor type 2 (Homo sapiens, UniProt O43614).
T1 sequence (O43614 whole entry): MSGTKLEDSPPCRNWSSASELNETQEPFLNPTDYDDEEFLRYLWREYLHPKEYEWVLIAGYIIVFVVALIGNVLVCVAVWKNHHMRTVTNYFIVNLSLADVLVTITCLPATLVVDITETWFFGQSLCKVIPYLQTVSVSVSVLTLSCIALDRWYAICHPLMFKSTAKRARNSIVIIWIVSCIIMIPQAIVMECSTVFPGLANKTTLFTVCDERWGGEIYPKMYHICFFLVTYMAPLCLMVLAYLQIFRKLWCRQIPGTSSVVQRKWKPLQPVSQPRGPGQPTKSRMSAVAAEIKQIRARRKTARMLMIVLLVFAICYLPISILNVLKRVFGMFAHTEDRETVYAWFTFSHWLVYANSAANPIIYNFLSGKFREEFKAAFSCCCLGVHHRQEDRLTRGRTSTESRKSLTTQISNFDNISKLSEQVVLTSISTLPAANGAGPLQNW
Description: Receptor Activity Assay. The protocol:
In a typical experiment, the OX1 and OX2 receptor agonist activity is determined in accordance with the following general experimental method.
In turn, `CNS(=O)(=O)N[C@H]1C[C@@H](C)N(C(=O)OCC(F)F)[C@H]1COC1CCC(C(C)C)CC1` (some centres not stated) [US11098029, Example 13] had an IC50 of 1.9 nM.
In the case of `CC(C)OC(=O)N1[C@H](C)C[C@H](NS(C)(=O)=O)[C@@H]1COC1CCC(C(C)C)CC1` (some centres not stated) [US11098029, Example 5] it was 227 nM; in that of `CC(C)C1CCC(OC[C@H]2[C@@H](NS(C)(=O)=O)C[C@@H](C)N2C(=O)OCCF)CC1` (some centres not stated) [US11098029, Example 10], 69.3 nM; in that of `COC(=O)N1[C@H](C)C[C@H](NS(C)(=O)=O)[C@@H]1COC1CCC(C(C)C)CC1` (some centres not stated) [US11098029, Example 3], 19.3 nM.
To `CC(C)C1CCC(OC[C@H]2[C@@H](NS(=O)(=O)N(C)C)C[C@@H](C)N2C(=O)OCC(F)F)CC1` (some centres not stated) [US11098029, Example 14] belongs 2.5 nM; to `CCNC(=O)N1[C@H](C)C[C@H](NS(C)(=O)=O)[C@@H]1COC1CCC(C(F)(F)F)CC1` (some centres not stated) [US11098029, Example 2], 117 nM; to `COC(=O)N1[C@H](C)C[C@H](NS(=O)(=O)N(C)CCS(C)(=O)=O)[C@@H]1COC1CCC(c2cccc(F)c2)CC1` (some centres not stated) [US11098029, Example 57], 1.6 nM.
To `CC(C)C1CCC(OC[C@H]2[C@@H](NS(C)(=O)=O)C[C@@H](C)N2C(=O)OCC(F)F)CC1` (some centres not stated) [US11098029, Example 9] belongs 8.57 nM.
Regarding `CCOC(=O)N1[C@H](C)C[C@H](NS(=O)(=O)N(C)C)[C@@H]1COC1CCC(C(C)C)CC1` (some centres not stated) [US11098029, Example 8], the IC50 was 9.52 nM.
To `CC[C@@H]1C[C@H](NS(C)(=O)=O)[C@H](CO[C@H]2CC[C@@H](c3ccccc3)CC2)N1C(=O)OC` (racemic) [US11098029, Example 43] belongs 8.1 nM; to `COC(=O)N1[C@H](C)C[C@H](NS(=O)(=O)N(C)C)[C@@H]1COC1CCC(C(F)(F)F)CC1` (some centres not stated) [US11098029, Example 11], 264 nM.
In the case of `COC(=O)N1[C@H](C)C[C@H](NS(C)(=O)=O)[C@@H]1COC1CCC(CC(F)(F)F)CC1` (some centres not stated) [US11098029, Example 12] it was 390 nM.

(Values after BindingDB's records for patent US11098029 (Merck Sharp & Dohme, 2021).)
